Measured values: US20240150377A1, “MODULATORS OF CYSTIC FIBROSIS TRANSMEMBRANE CONDUCTANCE REGULATOR” (VERTEX PHARMACEUTICALS INCORPORATED, priority 2020, published 2024)
Like-named read-outs stand apart in the source and are kept apart here. Blank lines part the entries; values can stand above or below the compound they belong to.

Legend:
CFTR [1] = molecular target: T1, CFTR (Homo sapiens, UniProt P13569, DEL508-508); experiment: HBE assay: Ussing chamber assay of CFTR-mediated short-circuit currents; format: cell-based; conditions: for EC50: read-out: HBE EC50
T1 construct: endogenous in cells; host or cells: primary human bronchial epithelial cells from CF subjects (F508del/MF-HBE), differentiated at air-liquid interface
How it was run: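 CFTR-mediated Isc (μA/cm²) equals the peak response to apical 20 μM forskolin minus the residual after a 20 μM each BPO/GlyH-101/CFTR inhibitor 172 cocktail, recorded in Ussing chambers at Vhold 0 mV, 37 °C, pH 7.4, with 30 μM apical amiloride. Cells were F508del/MF HBE cultures preincubated 18-24 h with corrector (concentration range or 10 μM) plus 1 μM ivacaftor in 20% human serum.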

[2] = amide bond, 13-membered ring
CFTR [3] = molecular target: T1, CFTR; experiment: HBE2 assay: Ussing chamber assay of CFTR-mediated short-circuit currents; format: cell-based; conditions: F508del/MF-HBE cells, with 44 nM potentiator, 18-24 hours, 20% human serum
How it was run: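 Corrector activity read as CFTR-dependent ISC (μA/cm^2): peak forskolin current minus post-inhibitor steady state. Measured at 37 °C, voltage clamp at 0 mV, on F508del/MF-HBE epithelia grown >14 days air-liquid interface in Ussing chambers.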

[4] = Table 11, read-out: HBE Max Activity (%)
[5] = Table 10, read-out: HBE Max activity (%)

T1 sequence (P13569 with tags, fused parts or gaps DEL508-508): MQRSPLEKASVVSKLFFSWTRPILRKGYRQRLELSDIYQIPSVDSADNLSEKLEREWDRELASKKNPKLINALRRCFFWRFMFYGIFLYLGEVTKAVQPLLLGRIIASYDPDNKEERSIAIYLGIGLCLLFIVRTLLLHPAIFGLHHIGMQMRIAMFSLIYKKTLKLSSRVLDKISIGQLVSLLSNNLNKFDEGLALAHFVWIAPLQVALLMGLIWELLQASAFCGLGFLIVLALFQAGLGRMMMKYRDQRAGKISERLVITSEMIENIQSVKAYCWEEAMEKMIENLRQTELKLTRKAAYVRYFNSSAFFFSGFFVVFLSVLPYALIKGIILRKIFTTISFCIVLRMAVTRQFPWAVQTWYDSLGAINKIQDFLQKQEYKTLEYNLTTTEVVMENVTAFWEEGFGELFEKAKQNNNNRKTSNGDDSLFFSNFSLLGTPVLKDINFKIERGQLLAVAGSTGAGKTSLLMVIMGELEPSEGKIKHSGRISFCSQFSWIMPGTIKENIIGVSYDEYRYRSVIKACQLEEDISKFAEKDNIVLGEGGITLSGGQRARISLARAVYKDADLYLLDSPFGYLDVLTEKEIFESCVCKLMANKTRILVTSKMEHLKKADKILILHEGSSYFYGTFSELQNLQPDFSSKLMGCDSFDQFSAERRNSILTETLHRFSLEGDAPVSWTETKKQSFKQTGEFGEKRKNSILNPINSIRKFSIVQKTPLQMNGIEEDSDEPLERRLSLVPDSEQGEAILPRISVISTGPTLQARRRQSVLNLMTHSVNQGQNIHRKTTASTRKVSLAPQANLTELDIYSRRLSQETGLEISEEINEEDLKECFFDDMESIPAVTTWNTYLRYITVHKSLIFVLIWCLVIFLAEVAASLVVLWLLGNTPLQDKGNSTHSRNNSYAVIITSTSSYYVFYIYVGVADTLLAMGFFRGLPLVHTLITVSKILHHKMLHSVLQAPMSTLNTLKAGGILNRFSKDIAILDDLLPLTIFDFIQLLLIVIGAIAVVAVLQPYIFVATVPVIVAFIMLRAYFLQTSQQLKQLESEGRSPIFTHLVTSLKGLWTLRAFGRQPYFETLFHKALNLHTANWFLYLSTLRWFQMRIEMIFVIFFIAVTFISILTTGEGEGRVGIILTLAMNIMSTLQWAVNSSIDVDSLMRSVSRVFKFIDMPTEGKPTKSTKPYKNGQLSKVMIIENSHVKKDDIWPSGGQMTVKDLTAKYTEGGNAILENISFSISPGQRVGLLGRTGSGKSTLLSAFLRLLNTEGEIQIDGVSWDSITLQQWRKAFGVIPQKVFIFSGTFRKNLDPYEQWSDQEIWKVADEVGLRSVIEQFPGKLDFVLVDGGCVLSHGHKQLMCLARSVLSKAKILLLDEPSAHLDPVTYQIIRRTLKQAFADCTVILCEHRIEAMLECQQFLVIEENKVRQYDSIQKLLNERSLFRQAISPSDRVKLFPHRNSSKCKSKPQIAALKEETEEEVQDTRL

EC50 (CFTR [1]; Table 11): < 1000 nM
Emax (CFTR [1]; [4]): > 60%
SMILES: Cc1cccc(C)c1-c1cc2nc(n1)NS(=O)(=O)c1cccc(c1)C(=O)N(C[C@@H]1CN(C(=O)OC(C)(C)C)CCO1)[C@H](CC(C)(C)C)CO2 [Compound 141, tert-Butyl (2R)-2-[[(11R)-6-(2,6-dimethylphenyl)-11-(2,2-dimethylpropyl)-2,2,13-trioxo-9-oxa-2λ^6-thia-3,5,12,19-tetrazatricyclo[12.3.1.14,8]nonadeca-1(18),4(19),5,7,14,16-hexaen-12-yl]methyl]morpholine-4-carboxylate]
ring closure, yield after HPLC ([2]; from Cc1cccc(C)c1-c1cc(OC[C@@H](CC(C)(C)C)NC[C@@H]2CN(C(=O)OC(C)(C)C)CCO2)nc(NS(=O)(=O)c2cccc(C(=O)O)c2)n1, CDMT/NMM, DMF, 26.4 mM): 69%

activation at 10 µM (CFTR [1]; Table 11, read-out: HBE Activity at 10 μM (%)): > 60%
EC50 (CFTR [1]; Table 11): < 1000 nM
Emax (CFTR [1]; [4]): > 60%
SMILES: Cc1cccc(OCc2ccccc2)c1-c1cc2nc(n1)NS(=O)(=O)c1cccc(c1)C(=O)N(Cc1ccc(N3CCOCC3)cn1)[C@H](CC(C)(C)C)CO2 [Compound 7, (11R)-6-(2-Benzyloxy-6-methyl-phenyl)-11-(2,2-dimethylpropyl)-12-[(5-morpholino-2-pyridyl)methyl]-2,2-dioxo-9-oxa-2λ^6-thia-3,5,12,19-tetrazatricyclo[12.3.1.14,8]nonadeca-1(18),4(19),5,7,14,16-hexaen-13-one]
ring closure, yield after HPLC ([2]; from Cc1cccc(OCc2ccccc2)c1-c1cc(OC[C@@H](CC(C)(C)C)NCc2ccc(N3CCOCC3)cn2)nc(NS(=O)(=O)c2cccc(C(=O)O)c2)n1, HATU/TBTU/DMTMM/DIEA, DCM, 3.76 mM, 25.0 °C, 1.0 h): 22%

HBE2 Activity at 3 μM (%) (CFTR [3]; 3 μM): +++ (+++ is >60+)
EC50 (CFTR [3]): < 1000 nM
Emax (CFTR [3]; read-out: HBE2 Max activity (%)): > 60%
SMILES: Cc1cccc(C)c1-c1cc2nc(n1)NS(=O)(=O)c1cccc(c1)C(=O)N(Cc1cncc(N(C)C3CCC3)n1)[C@H](CCC(C)(C)C)CO2 [Compound 1319, (11R)-12-[[6-[Cyclobutyl(methyl)amino]pyrazin-2-yl]methyl]-11-(3,3-dimethylbutyl)-6-(2,6-dimethylphenyl)-2,2-dioxo-9-oxa-2λ^6-thia-3,5,12,19-tetrazatricyclo[12.3.1.14,8]nonadeca-1(18),4(19),5,7,14,16-hexaen-13-one]
ring closure, yield after HPLC ([2]; from Cc1cccc(C)c1-c1cc(OC[C@@H](CCC(C)(C)C)NCc2cncc(N(C)C3CCC3)n2)nc(NS(=O)(=O)c2cccc(C(=O)O)c2)n1, CDMT/NMM, DMF, 26.4 mM, 13.1 h): 44%

EC50 (CFTR [1]; Table 11): < 1000 nM
Emax (CFTR [1]; [4]): > 60%
SMILES: Cc1cccc(C)c1-c1cc2nc(n1)NS(=O)(=O)c1cccc(c1)C(=O)N(Cc1ncc(OC(C)C)cn1)[C@H](CC(C)(C)C)CO2 [Compound 118, (11R)-6-(2,6-Dimethylphenyl)-11-(2,2-dimethylpropyl)-12-{[5-(propan-2-yloxy)pyrimidin-2-yl]methyl}-9-oxa-2λ^6-thia-3,5,12,19-tetraazatricyclo[12.3.1.14,8]nonadeca-1(17),4,6,8(19),14(18),15-hexaene-2,2,13-trione]
ring closure, yield after HPLC ([2]; from Cc1cccc(C)c1-c1cc(OC[C@@H](CC(C)(C)C)NCc2ncc(OC(C)C)cn2)nc(NS(=O)(=O)c2cccc(C(=O)O)c2)n1, CDMT/NMM, DMF, 14.3 mM, 13.25 h): 59%

EC50 (CFTR [1]; Table 11): < 1000 nM
Emax (CFTR [1]; [4]): > 60%
SMILES: Cc1cccc(C)c1-c1cc2nc(n1)NS(=O)(=O)c1cccc(c1)C(=O)N(Cc1cc(C3CC3)no1)[C@H](CC(C)(C)C)CO2 [Compound 137, (11R)-12-[(3-Cyclopropyl-1,2-oxazol-5-yl)methyl]-6-(2,6-dimethylphenyl)-11-(2,2-dimethylpropyl)-9-oxa-2λ^6-thia-3,5,12,19-tetraazatricyclo[12.3.1.14,8]nonadeca-1(17),4(19),5,7,14(18),15-hexaene-2,2,13-trione]
ring closure, yield after HPLC ([2]; from Cc1cccc(C)c1-c1cc(OC[C@@H](CC(C)(C)C)NCc2cc(C3CC3)no2)nc(NS(=O)(=O)c2cccc(C(=O)O)c2)n1, HATU/TEA, DMF, 15.4 mM, 2.0 h): 44%

EC50 (CFTR [1]; Table 11): < 1000 nM
Emax (CFTR [1]; [4]): > 60%
SMILES: COCc1cccc(CN2C(=O)c3cccc(c3)S(=O)(=O)Nc3nc(cc(-c4c(C)cccc4C)n3)OC[C@H]2CC(C)(C)C)n1 [Compound 130, (11R)-6-(2,6-Dimethylphenyl)-11-(2,2-dimethylpropyl)-12-[[6-(methoxymethyl)-2-pyridyl]methyl]-2,2-dioxo-9-oxa-2λ^6-thia-3,5,12,19-tetrazatricyclo[12.3.1.14,8]nonadeca-1(18),4(19),5,7,14,16-hexaen-13-one]
ring closure, yield after HPLC ([2]; from COCc1cccc(CN[C@@H](COc2cc(-c3c(C)cccc3C)nc(NS(=O)(=O)c3cccc(C(=O)O)c3)n2)CC(C)(C)C)n1, CDMT/NMM, DMF, 3.0 h, 2 steps): 10%

EC50 (CFTR [1]; Table 11): < 1000 nM
Emax (CFTR [1]; [4]): > 60%
SMILES: Cc1cccc(C)c1-c1cc2nc(n1)NS(=O)(=O)c1cccc(c1)C(=O)N(Cc1cccn(C)c1=O)[C@H](CC(C)(C)C)CO2 [Compound 59, (11R)-6-(2,6-Dimethylphenyl)-11-(2,2-dimethylpropyl)-12-[(1-methyl-2-oxo-3-pyridyl)methyl]-2,2-dioxo-9-oxa-2λ^6-thia-3,5,12,19-tetrazatricyclo[12.3.1.14,8]nonadeca-1(18),4(19),5,7,14,16-hexaen-13-one]
ring closure, yield after HPLC ([2]; from Cc1cccc(C)c1-c1cc(OC[C@@H](CC(C)(C)C)NCc2cccn(C)c2=O)nc(NS(=O)(=O)c2cccc(C(=O)O)c2)n1, HATU/DIEA, DMF, 28.1 mM, 25.0 °C, 2.0 h): 54%

activation at 10 µM (CFTR [1]; Table 10, read-out: HBE activity at 10 (μM) (%)): > 60%
SMILES: Cc1cccc(C)c1-c1cc2nc(n1)NS(=O)(=O)c1cccc(c1)C(=O)N(Cc1cnn3ccccc13)[C@H](CC(C)(C)C)CO2 [Compound 139, (11R)-6-(2,6-Dimethylphenyl)-11-(2,2-dimethylpropyl)-12-({pyrazolo[1,5-a]pyridin-3-yl}methyl)-9-oxa-2λ^6-thia-3,5,12,19-tetraazatricyclo[12.3.1.14,8]nonadeca-1(17),4,6,8(19),14(18),15-hexaene-2,2,13-trione]
ring closure, yield after HPLC ([2]; from Cc1cccc(C)c1-c1cc(OC[C@@H](CC(C)(C)C)NCc2cnn3ccccc23)nc(NS(=O)(=O)c2cccc(C(=O)O)c2)n1, HATU/DIEA, DMF, 29.4 mM, 4.0 h): 57%

EC50 (CFTR [1]; Table 11): < 1000 nM
Emax (CFTR [1]; [4]): > 60%
SMILES: Cc1cccc(C)c1-c1cc2nc(n1)NS(=O)(=O)c1cccc(c1)C(=O)N(Cc1nccc(C(F)(F)F)n1)[C@H](CC(C)(C)C)CO2 [Compound 122, (11R)-6-(2,6-Dimethylphenyl)-11-(2,2-dimethylpropyl)-12-{[4-(trifluoromethyl)pyrimidin-2-yl]methyl}-9-oxa-2λ^6-thia-3,5,12,19-tetraazatricyclo[12.3.1.14,8]nonadeca-1(17),4,6,8(19),14(18),15-hexaene-2,2,13-trione]
ring closure, yield after HPLC ([2]; from Cc1cccc(C)c1-c1cc(OC[C@@H](CC(C)(C)C)NCc2nccc(C(F)(F)F)n2)nc(NS(=O)(=O)c2cccc(C(=O)O)c2)n1, CDMT/NMM, DMF, 27.3 mM): 48%

EC50 (CFTR [1]; Table 10): < 1000 nM
Emax (CFTR [1]; [5]): > 60%
SMILES: COCCN(C)c1cnc(CN2C(=O)c3cccc(c3)S(=O)(=O)Nc3nc(cc(-c4c(C)cccc4C)n3)OC[C@H]2CC(C)(C)C)nc1 [Compound 114, (11R)-6-(2,6-Dimethylphenyl)-11-(2,2-dimethylpropyl)-12-[[5-[2-methoxyethyl(methyl)amino]pyrimidin-2-yl]methyl]-2,2-dioxo-9-oxa-2λ^6-thia-3,5,12,19-tetrazatricyclo[12.3.1.14,8]nonadeca-1(18),4(19),5,7,14,16-hexaen-13-one]
ring closure, yield after HPLC ([2]; from 3-[[4-(2,6-dimethylphenyl)-6-[(2R)-2-[[5-[2-methoxyethyl(methyl)amino]pyrimidin-2-yl]methylamino]-4,4-dimethyl-pentoxy]pyrimidin-2-yl]sulfamoyl]benzoic acid (Dihydrochloride salt), HATU/DIEA, DMF, 10.5 mM, 25.0 °C): 53%

EC50 (CFTR [1]; Table 10): < 1000 nM
Emax (CFTR [1]; [5]): > 60%
SMILES: Cc1cccc(C)c1-c1cc2nc(n1)NS(=O)(=O)c1cccc(c1)C(=O)N(Cc1ccc(N3CCOCC3)nn1)[C@H](CC(C)(C)C)CO2 [Compound 111, (11R)-6-(2,6-Dimethylphenyl)-11-(2,2-dimethylpropyl)-12-[(6-morpholinopyridazin-3-yl)methyl]-2,2-dioxo-9-oxa-2λ^6-thia-3,5,12,19-tetrazatricyclo[12.3.1.14,8]nonadeca-1(18),4(19),5,7,14,16-hexaen-13-one]
ring closure, yield after HPLC ([2]; from Cc1cccc(C)c1-c1cc(OC[C@@H](CC(C)(C)C)NCc2ccc(N3CCOCC3)nn2)nc(NS(=O)(=O)c2cccc(C(=O)O)c2)n1, CDMT/NMM, DMF, 25.0 °C, 3.0 h, 2 steps): 10%
